In US20240252716A1, “SELF-ASSEMBLING NANOFIBROUS ULTRASHORT PEPTIDE HYDROGELS FOR VASCULAR TISSUE ENGINEERING” (KING ABDULLAH UNIVERSITY OF SCIENCE AND TECHNOLOGY, priority 2021, published 2024):
[ ]: non-standard residue; d: D form. Cha = N[C@@H](CC1CCCCC1)C(=O)O

Key:
HUVEC cells [1] = test: LIVE/DEAD staining viability of HUVEC cells cultured in peptide hydrogels; format: cell-based, Human; conditions: cultured within hydrogel; 24 h, 4 days and 7 days; versus Matrigel
Protocol: Viability of HUVEC cells were evaluated by using LIVE/DEAD® staining at different time points in order to assess the compatibility of peptide scaffolds with cells. In one embodiment, the viability of HUVEC cells was determined after 24 h, 4 days and 7 days of culturing within peptide scaffolds.
In FIG. 3, for living cells were stained in green by calcein AM, while dead cells were stained in red by ethidium homodimer (EthD-1).
HUVEC cells were seeded and treated with peptides according to the protocol described above. After 24 h of incubation, the media was removed and replaced with DPBS solution containing approximately […] calcein AM and […] ethidium homodimer-1 (LIVE/DEAD® Viability/Cytotoxicity Kit, Life Technologies®) and incubated for 30 min in dark. Before imaging, the staining solution was removed and fresh DPBS was added. Stained cells were imaged with ZEISS® fluorescent microscope.
(§1) HUVEC cells were encapsulated in peptide hydrogels in 96 well tissue culture plates. Peptide solution was added to the plate at 40 μL per well. HUVEC cells suspended in 2×PBS were added to each well at 40,000 cells/well and gently mixed. The final concentration of the peptide hydrogel was 1× after the addition of 2×PBS containing cells. […] At pre-determined time points, the 3D cell viability assay, live/dead assay and florescence staining were performed.

HUVECs [2] = test: Cell attachment of HUVECs on coverslips coated with hydrogels or Matrigel; format: cell-based, Human; conditions: after 4 hours of culture
Protocol: Cell attachment was evaluated by seeding HUVECs on top of coverslips coated with Matrigel® (control) and different hydrogels. After incubation for 4 hours, efficient cell extension and adhesion in both control and hydrogels can be clearly seen, and also tube-like structure can be observed, as shown in FIG. 4. Furthermore, the number of cells attached was calculated for different scaffold used.

HUVEC cells [3] = test: 3D cell proliferation assay (CellTiter-Glo, ATP production); format: cell-based, Human
Protocol: In one embodiment, HUVEC cells have higher proliferation cultured in peptides than in Matrigel®. Proliferation of cells cultured in both hydrogels and Matrigel® was evaluated by measuring the production of ATP after culturing for different period of time. The differences in ATP produced when cultured in different scaffolds was calculated.
HUVEC cells were encapsulated in peptide hydrogels in 96 well tissue culture plates. Peptide solution was added to the plate at 40 μL per well. HUVEC cells suspended in 2×PBS were added to each well at 40,000 cells/well and gently mixed. The final concentration of the peptide hydrogel was 1× after the addition of 2×PBS containing cells. Gelation occurred within 3-5 minutes and subsequently, the culture medium was added to the wells. At pre-determined time points, the 3D cell viability assay, live/dead assay and florescence staining were performed.
The CellTiter-Glo® luminescent 3D cell viability assay is a method to determine the number of viable cells in 3D hydrogels based on quantification of the ATP present, which signals the presence of metabolically active cells. After each time point, an equal amount of CellTiter-Glo® luminescent reagent was added to the same amount of media in each well. The contents were mixed for 5 minutes to digest the hydrogels and then incubated for 10 minutes. After incubation, the luminescence was recorded using a plate reader (PHERAstar® FS, Germany).

HUVECs [4] = test: Cytoskeletal (actin) staining with rhodamine-phalloidin; format: cell-based, Human; conditions: 24 h of culture
Protocol: In one embodiment, HUVECs grown in peptide scaffolds maintain their normal morphology and functionality. […] In the present disclosure, the cytoskeleton organization of HUVECs grown in the nanofibers scaffolds was visualized by staining the actin of cells with rhodamine-phalloidin. Cell morphology and the organization of actin structures of HUVECs grown in different scaffolds were compared and shown in FIG. 7.
(§2) Immunostaining was performed after 24 h of culture. In brief, the cells were fixed with 4% paraformaldehyde solution for 30 minutes and incubated in a cold cytoskeleton buffer (3 mM MgCl2, 300 mM sucrose and 0.5% Triton X-100 in PBS solution) for 10 minutes to permeabilize the cell membranes. The permeabilised cells were incubated in blocking buffer solution (5% FBS, 0.1% Tween-20, and 0.02% sodium azide in PBS) for 30 minutes at 37° C., followed by incubation with rhodamine-phalloidin (1:300) for 1 hour at 37° C. In case of endothelial cell markers, the sample incubated with Mouse anti-Endothelial Cell CD146 ( 1/500), Rabbit anti-VWF ( 1/5000) or Mouse anti-CD31 ( 1/50) for 1 hour and followed by secondary antibody. Furthermore, the cells were incubated in DAPI for 5 minutes at room temperature to counterstain the nucleus. Finally, the cells were observed and imaged using a laser scanning confocal microscope (Zeiss® LSM 710 Inverted Confocal Microscope, Germany).

HUVECs [5] = test: Endothelial cell marker expression (immunostaining); format: cell-based, Human; conditions: similar to that in Matrigel
Protocol: The functionality of HUVECs in different scaffolds was determined by the expression of universal endothelial cell markers, including CD34, CD146 and Von-Willebrand factor (vWF).
as §2

HUVECs [6] = test: In vitro angiogenesis study (tube-like structure formation); format: cell-based, Human; conditions: for capillary-like structure formation by HUVECs: 2-6 hours of culture, no growth factors added to peptide scaffolds; for length of tube-like structure versus Matrigel: ImageJ, peptides without growth factor; for number of junctions of tube-like structure versus Matrigel: peptide hydrogels without growth factor, Matrigel with growth factors
Protocol: In one embodiment, HUVEC cells form tube-like structures when cultured in peptide hydrogels. In determining the effects of peptide scaffolds in facilitating the formation of the capillary-like structure formed by HUVEC cells, there was no addition of growth factors, after cells were plated on the surfaces of IIFK (SEQ ID NO. 1) and IIZK (SEQ ID NO. 2) scaffolds and Matrigel® (control). […] However, Matrigel® scaffold contains several growth factors that stimulate capillary-like structure formation rapidly. […] Tube length and diameter were evaluated using ImageJ software. […] In our study, no growth factors were added to the peptide scaffold.
Peptide hydrogel or Matrigel® were placed in 24 well plate, and human umbilical vein endothelial cells (HUVECs) 40,000 cells/well were added on top of peptide gel or Matrigel®. The amount of solutions in each well is about 200 μl. […] Cells were then investigated using inverted microscope, and images were analyzed by Image J using Angiogenesis Analyzer.

[7] = Peptide hydrogel preparation / gelation; format: physicochemical; conditions: water, then PBS to 1x final
Text: The solution-gel transition of both peptides (IIFK (SEQ ID NO. 1) and IIZK (SEQ ID NO. 2)) were induced by the addition of 1×PBS. Scanning electron microscopy (SEM) and transmission electron microscopy (TEM) examinations also confirmed the self-assembling nanofiber formations, as shown in FIGS. 1 and 2. The scale bars are 1 μm in FIGS. 1 and 200 nm in FIG. 2.
The tetramer self-assembling peptides Ac-IIZK (SEQ ID NO. 2)-NH2 (Ac-Ile-Val-Cha-Lys-NH2) and Ac-IIFK (SEQ ID NO. 1)-NH2 (Ac-Ile-Val-Phe-Lys-N H2) were manually synthesized by using solid phase peptide synthesis and purified to above 95% via HPLC. Amino acid and peptide content analysis were performed. Lyophilized peptide was dissolved in milliQ® water and vortexed to get a homogenous solution. Subsequently, 10×phosphate buffered saline at the final concentration of 1× was added to the peptide solution and vortexed shortly. Gelation occurred within few seconds in IIZK (SEQ ID NO. 2) at I mg/mL and IIFK (SEQ ID NO. 1) at 2 mg/mL peptide concentration.
as §1, with “mixed.” for “mixed. The final concentration of the peptide hydrogel was 1× after the addition of 2×PBS containing cells.”

peptide concentration at which gelation occurred within few seconds [7] [mg/mL]	Substance	viability of HUVEC cells (LIVE/DEAD staining) compared to Matrigel (HUVEC cells [1])	number of attached cells versus Matrigel (HUVECs [2])	ATP production by HUVEC cells versus Matrigel (HUVEC cells [3]; after 24 h of culture)	ATP production by HUVEC cells versus Matrigel (HUVEC cells [3]; after 7 day of culture)	cell morphology and actin organization (HUVECs [4])	expression of endothelial cell markers CD34, CD146 and vWF (HUVECs [5])	capillary-like structure formation by HUVECs (HUVECs [6])	length of tube-like structure versus Matrigel (HUVECs [6])	number of junctions of tube-like structure versus Matrigel (HUVECs [6])
–	Ac-IV[Cha]K-NH2 [IIZK]	higher viability	no significant difference	no significant difference	significantly higher	fibroblastic morphology	well expressed	formed capillary-like structure networks	no significant difference	comparable
2	Ac-Ile-Val-Phe-Lys-N H2 [IIFK]	higher viability	no significant difference	no significant difference	significantly higher	fibroblastic morphology	well expressed	formed capillary-like structure networks	no significant difference	comparable
